These results are taken from US20250234862A1, “FUNGICIDAL COMPOSITION FOR PREVENTING AND CONTROLLING ROOT ROT DISEASES IN CROPS CAUSED BY FUSARIUM SPP” (Institute Of Plant Protection And Agro-Products Safety, …, priority 2024, published 2025).

In test [1] the test system is Fusarium pseudogramineaqum. As to the kind of experiment: Indoor toxicity determination, mycelial growth assay on PDA medium. The test is classed as cell-based. As to conditions: mycelial growth inhibition, 25° C., wheat Fusarium pseudogramineaqum. On the procedure: (§1) A detailed analysis of the fungicidal properties of cyclobutrifluram and ipconazole was conducted. First, the EC50 ([…]) of the two single compounds (hereinafter referred to as agents) was determined. According to the EC50 of the two single agents, the combination ratio of the two agents was set according to the Wadley method, and based on the Wadley synergistic coefficient SR value.
(§2) The experimental targets were Fusarium pseudogramineaqum and Fusarium solani. The cyclobutrifluram and ipconazole were selected, and the PDA solid medium were selected, and the required liquid chemicals plates were prepared at about 18 ml per plate. The mycelium blocks with 5 mm diameter were prepared at the edge of pre cultured colonies using a sterilized punch, transferred to different culture media plates, and cultivated at 25° C. The experiment used the mycelial growth assay method to prepare drug containing culture media according to different treatments. The mycelium blocks with 5 mm diameter were prepared at the edge of pre cultured colonies using a sterilized punch and transferred to different culture media plates with different drug contents. The colony diameter was measured using the cross over method, and the colony diameter (mm) was measured. The growth inhibition rate was calculated using the following formula: […]
(§3) The mycelial growth inhibition rate was converted to the inhibition probability value (y), and the drug concentration was converted to the concentration logarithm (x). The concentration logarithm was used as the x-axis and the probability value was used as the y-axis to create a toxicity regression line. The toxicity regression equation of a single agent of cyclobutrifluram and ipconazole and a mixed agent of cyclobutrifluram and ipconazole against the pathogen were obtained, and the EC50 value and correlation coefficient r were calculated.
(§4) According to the Wadley method to evaluate the interaction of the mixed agent, the calculation formula is as follows: […]
(§5) Among them, a and b are the proportions of each component in the mixed agent, and the SR value is used to analyze the mixing effect. If SR≤0.5, the mixed agent of the two drugs has an antagonistic effect; if SR=0.5-1.5, the mixed agent of the two drugs has an additive effect; if SR≥1.5, the mixed agent of the two drugs has a synergistic effect.

The subject of a further test is Fusarium solani. The description is as above. The test is classed as cell-based. The settings on record: mycelial growth inhibition, 25° C., soybean Fusarium solani. On the procedure:
as §1, §2, §3, §4, §5

The test system of test [2] is wheat stem base rot disease. As to the kind of experiment: Field control experiment on wheat stem base rot disease (seed coating). The test is classed as in vivo, wheat variety Quanmai 725. On the procedure: Experiments employed 20% cyclobutrifluram·ipconazole suspension seed coating agent in example 1 of formulation implementation and 45% cyclobutrifluram suspension seed coating agent, 20% ipconazole suspension seed coating agent, and 15% carbendazim·thiram suspension seed coating agent. Experimental site was located at Liu Lake Farm in Suixi County using the wheat variety “Quanmai 725”. The agent was applied to seeds at a 1:1000 ratio by weight for seed coating. Additionally, the agent was diluted into a solution, with a final volume of 1 liter of solution used to treat 100 kg of wheat seeds, which were then dried in the shade before direct planting. Disease investigations were conducted during the tillering stage and after the growth of wheat entered the jointing-booting stage (Table 3).

Each structure is given as a SMILES string.

`O=C(NC1CCC1c1ccc(Cl)cc1Cl)c1cccnc1C(F)(F)F` (stereo not drawn) [Cyclobutrifluram]: the EC50 is 0.3033 ppm in test [1] and 0.3774 ppm with Fusarium solani. For the same compound, the “control effect on wheat stem base rot disease (in words)” value in test [2] is “significant control effect”.
In the case of `CC(C)C1CCC(Cc2ccc(Cl)cc2)C1(O)Cn1cncn1` (stereo not drawn) [Ipconazole, (1RS,2SR,5RS;1RS,2SR,5SR)-2-(4-chlorobenzyl)-5-isopropyl-1-(1H-1,2,4-triazol-1-ylmethyl)cyclopentanol], the EC50 is 0.1506 ppm in test [1] and 0.1808 ppm in the test with Fusarium solani. In addition, the “control effect on wheat stem base rot disease (in words)” value in test [2] is “significant control effect”.
